In brackets after ≈: the same amount, converted by molar mass. Read-outs that look alike come from different tables or passages of the source.
Tests used:
[1] = Stability test in acidic hydrochloric acid solution (pH 2), residual ratio by HPLC; type: physicochemical; conditions: for Residual ratio at pH 2: pH 2 HCl, 37° C.; for Stability in acid (residual ratio at pH = 2: %): Table 8 summary, time not stated
Description: A test for the stability of thioether compounds (hereinafter, referred to SH-form) and sulfoxide compounds (hereinafter, referred to SO-form) at pH 2.0 was carried out. (Method) Each of the specimens produced in Examples 1 to 3 and Reference Examples 6 to 8 (sulfinyl products of Examples 1 to 3) was maintained in a solution adjusted to pH 2 with 0.5 or 1.0 mmol/L HCl (37° C.) for a predetermined time period. Subsequently, the solution was adjusted to pH 8 with triethylamine, and then an HPLC analysis was performed to calculate the residual ratio.

[2] = test system: Helicobacter pylori standard strain ATCC 43504; experiment: Antibacterial potency test (MIC), Columbia agar medium, Pharmacological Test Example 1; type: cell-based
Description: A test was conducted to see whether there is a difference in the anti-Helicobacter pylori activity depending on the number of carbon atoms of the linear alkyl group for a substituent at the 4-position of the pyridine ring.
For the bacterium Helicobacter pylori, a standard strain ATCC 43504 was used to perform in vitro tests in Columbia agar medium. Each of the specimens was dissolved in a 1% DMSO solution, and the bacteria were cultured at 37° C. and pH 7.0 for 3 days. On the 4th day, the minimum growth inhibitory concentration (MIC, μg/ml) was determined.

[3] = test system: Helicobacter pylori standard strains ATCC 43504, ATCC 43629, ATCC 43570 and clinically separated strains; experiment: Anti-Helicobacter pylori activity (MIC), standard and clinically separated strains, Pharmacological Test Example 2; type: cell-based
Description: For the bacterium Helicobacter pylori, standard strains ATCC 43504, ATCC 43629 and ATCC 43570 were used to perform in vitro tests in Columbia agar medium. The bacteria were cultured at 37° C. and pH 7.0 for 3 days. On the 4th day, the minimum growth inhibitory concentration (MIC, μg/ml) was determined. Each of the specimens was dissolved in a 1% DMSO solution. Furthermore, amoxicillin and clarithromycin were used as control drugs of antibacterial substance. Further, the compound described in the article of Thomas C. Kuehler (J. Med.

[4] = test system: clinically separated clarithromycin-resistant strains and amoxicillin-insensitive strains of Helicobacter pylori; experiment: Antibacterial potency (MIC) against clarithromycin-resistant and amoxicillin-insensitive strains, Pharmacological Test Example 3; type: cell-based; conditions: Helicobacter pylori, read-out: MIC
Description: A test was conducted on the antibacterial potency of the compounds of the present invention against the clarithromycin-resistant strains and amoxicillin-insensitive strains of the bacterium Helicobacter pylori.
A test was conducted on the antibacterial potency of the compounds of the present invention, using clinically separated clarithromycin-resistant strains and amoxicillin-insensitive strains of the bacterium Helicobacter pylori. For the respective strains, in vitro tests were performed in Columbia agar medium. Each of the specimens was dissolved in a 1% DMSO solution. The bacteria were cultured at 37° C. and pH 7.0 for 3 days, and on the 4th day, the minimum growth inhibitory concentration (MIC, μg/ml) was determined.

[5] = test system: Escherichia coli (ATCC 10536); experiment: Antibacterial test (MIC), Gram-negative bacteria; type: cell-based; conditions: ATCC10536, read-out: MIC
Excerpt: (§1) As for the Gram-negative bacteria, E. coli (ATCC 10536, ATCC 25922), Klebsiella pneumonia (ATCC 10031), Proteus vulgaris (ATCC 13315), Pseudomonas aeruginosa (ATCC 9027), and Salmonella typhimurium (ATCC 13311) were used, and as for the Gram-positive bacteria, Staphylococcus aureus, MRSA (ATCC 33591), Staphylococcus epidermidis (ATCC 12228), Streptococcus pneumonia (ATCC 6301), Mycobacterium ranae (ATCC 110), and Enterococcus faecalis (VRE, ATCC 51575) were used. The various bacteria were cultured at 37° C. for 20 to 48 hours by conventional methods, and the minimum growth inhibitory concentration (MIC, μg/ml) was determined. Each of the specimens was dissolved in a 1% DMSO solution. Furthermore, amoxicillin, clarithromycin and gentamycin were used as control drugs of antibacterial substance.

[6] = test system: Escherichia coli (ATCC 25922); experiment: Antibacterial test (MIC), Gram-negative bacteria; type: cell-based; conditions: ATCC25922, read-out: MIC
Excerpt: as §1

[7] = test system: Klebsiella pneumonia (ATCC 10031); experiment: Antibacterial test (MIC), Gram-negative bacteria; type: cell-based; conditions: Klebsiella pneumoniae, ATCC10031, read-out: MIC
Excerpt: as §1

[8] = test system: Proteus vulgaris (ATCC 13315); experiment: Antibacterial test (MIC), Gram-negative bacteria; type: cell-based; conditions: ATCC13315, read-out: MIC
Excerpt: as §1

[9] = test system: Pseudomonas aeruginosa (ATCC 9027); experiment: Antibacterial test (MIC), Gram-negative bacteria; type: cell-based; conditions: ATCC9027, read-out: MIC
Excerpt: as §1

[10] = test system: Salmonella typhimurium (ATCC 13311); experiment: Antibacterial test (MIC), Gram-negative bacteria; type: cell-based; conditions: Salmonella enterica, read-out: MIC
Excerpt: as §1

[11] = test system: Enterococcus faecalis (VRE, ATCC 51575); experiment: Antibacterial test (MIC), Gram-positive bacteria; type: cell-based
Excerpt: as §1

[12] = test system: Mycobacterium ranae (ATCC 110); experiment: Antibacterial test (MIC), Gram-positive bacteria; type: cell-based; conditions: ATCC110, read-out: MIC
Excerpt: as §1

[13] = test system: Staphylococcus aureus, MRSA (ATCC 33591); experiment: Antibacterial test (MIC), Gram-positive bacteria; type: cell-based; conditions: read-out: MIC
Excerpt: as §1

[14] = test system: Staphylococcus epidermidis (ATCC 12228); experiment: Antibacterial test (MIC), Gram-positive bacteria; type: cell-based; conditions: ATCC12228, read-out: MIC
Excerpt: as §1

[15] = test system: Streptococcus pneumonia (ATCC 6301); experiment: Antibacterial test (MIC), Gram-positive bacteria; type: cell-based; conditions: Streptococcus pneumoniae, ATCC6301
Excerpt: as §1

[16] = test system: gastric acid secretion; experiment: Gastric acid secretion inhibiting action, pylorus ligation in rats; type: in vivo, SD rats; conditions: 30 mg/kg to the duodenum, 4 hours after pylorus ligation, average
Description: The gastric acid secretion inhibiting action of the compounds of the present invention was tested. A group of five animals of male SD rats (about 200 g) were used, and the medicaments were respectively dissolved in 0.5% CMC and were all administered to the duodenum respectively at 30 mg/kg. The rats were fasted overnight from the day before the administration of the test substance to the point of administration, and pylorus ligation was performed.

[17] = ATCC43504, 72 h, ATCC 43504, 37° C., pH 7.0, 3 days, read-out: MIC
[18] = ATCC43504, Table 8 summary, strain not stated, read-out: Anti-HP activity (MIC: μg/mL)
[19] = Clinically separated strain PT1045482
[20] = Clinically separated strain PT1045483
[21] = Clinically separated strain PT1045484

| Structure (SMILES) | Residual ratio at pH 2 ([1]; 0 min) [%] | Residual ratio at pH 2 ([1]; 30 min) [%] | Residual ratio at pH 2 ([1]; 2 hours) [%] | Stability in acid (residual ratio at pH = 2: %) [1] [%] | MIC [2, 17] [µg/mL] | MIC [2, 18] [µg/mL] | MIC [3, 19] [µg/mL] | MIC [3, 20] [µg/mL] | MIC [3, 21] [µg/mL] | MIC ([3]; Standard strain ATCC 43504) [µg/mL] | MIC ([3]; Standard strain ATCC 43570) [µg/mL] | MIC ([3]; Standard strain ATCC 43629) [µg/mL] | MIC ([4]; AMO-insensitive strain NO. 1) [µg/mL] | MIC ([4]; AMO-insensitive strain NO. 2) [µg/mL] | MIC ([4]; AMO-insensitive strain NO. 3) [µg/mL] | MIC ([4]; AMO-insensitive strain NO. 4) [µg/mL] | MIC ([4]; CAM-resistant strain NO. 1) [µg/mL] | MIC ([4]; CAM-resistant strain NO. 2) [µg/mL] | MIC ([4]; CAM-resistant strain NO. 3) [µg/mL] | MIC ([4]; CAM-resistant strain NO. 4) [µg/mL] | other results |
| --- | --- | --- | --- | --- | --- | --- | --- | --- | --- | --- | --- | --- | --- | --- | --- | --- | --- | --- | --- | --- | --- |
| CCCCCOc1ccnc(CSc2nc3ccccc3[nH]2)c1C [Example 1, 2-[(4-n-pentyloxy-3-methylpyridin-2-yl)-methylthio]-1H-benzimidazole] | 100 | 100 | 100 | 100 | 0.1 (≈ 0.293 µM) | 0.1 (≈ 0.293 µM) | 0.1 (≈ 0.293 µM) | 0.06 (≈ 0.176 µM) | 0.06 (≈ 0.176 µM) | 0.1 (≈ 0.293 µM) | < 0.015 | 0.06 (≈ 0.176 µM) | 0.06 (≈ 0.176 µM) | 0.06 (≈ 0.176 µM) | 0.06 (≈ 0.176 µM) | 0.06 (≈ 0.176 µM) | 0.06 (≈ 0.176 µM) | 0.06 (≈ 0.176 µM) | 0.06 (≈ 0.176 µM) | 0.06 (≈ 0.176 µM) | MIC [5]: > 100 µg/mL; MIC [6]: > 100 µg/mL; MIC [7]: > 100 µg/mL; MIC [8]: > 100 µg/mL; MIC [9]: > 100 µg/mL; MIC [10]: > 100 µg/mL; MIC [11]: > 100 µg/mL; MIC [12]: > 100 µg/mL; MIC [13]: > 100 µg/mL; MIC [14]: > 100 µg/mL; MIC [15]: > 100 µg/mL; Gastric acid secretion inhibiting action: Amount of gastric acid [16]: 57%; Gastric acid secretion inhibiting action: Amount of gastric acid secretion [16]: 82%; Gastric acid secretion inhibiting action: Total acidity [16]: 60% |
| CCCCCCOc1ccnc(CSc2nc3ccccc3[nH]2)c1C [Example 2, 2-[(4-n-hexyloxy-3-methylpyridin-2-yl)-methylthio]-1H-benzimidazole] | 100 | 100 | 100 | 100 | 0.1 (≈ 0.281 µM) | 0.1 (≈ 0.281 µM) | 0.1 (≈ 0.281 µM) | 0.1 (≈ 0.281 µM) | 0.1 (≈ 0.281 µM) | 0.1 (≈ 0.281 µM) | 0.03 (≈ 0.0844 µM) | 0.1 (≈ 0.281 µM) | 0.06 (≈ 0.169 µM) | 0.12 (≈ 0.338 µM) | 0.12 (≈ 0.338 µM) | 0.12 (≈ 0.338 µM) | 0.06 (≈ 0.169 µM) | 0.06 (≈ 0.169 µM) | 0.06 (≈ 0.169 µM) | 0.06 (≈ 0.169 µM) | MIC [5]: > 100 µg/mL; MIC [6]: > 100 µg/mL; MIC [7]: > 100 µg/mL; MIC [8]: > 100 µg/mL; MIC [9]: > 100 µg/mL; MIC [10]: > 100 µg/mL; MIC [11]: > 100 µg/mL; MIC [12]: > 100 µg/mL; MIC [13]: > 100 µg/mL; MIC [14]: > 100 µg/mL; MIC [15]: > 100 µg/mL; Gastric acid secretion inhibiting action: Amount of gastric acid [16]: 44%; Gastric acid secretion inhibiting action: Amount of gastric acid secretion [16]: 65%; Gastric acid secretion inhibiting action: Total acidity [16]: 34% |
| CCCCCCCOc1ccnc(CSc2nc3ccccc3[nH]2)c1C [Example 3, 2-[(4-n-heptyloxy-3-methylpyridin-2-yl)-methylthio]-1H-benzimidazole] | 100 | 100 | 100 | 100 | 0.1 (≈ 0.271 µM) | 0.1 (≈ 0.271 µM) | 0.1 (≈ 0.271 µM) | 0.1 (≈ 0.271 µM) | 0.1 (≈ 0.271 µM) | 0.1 (≈ 0.271 µM) | 0.1 (≈ 0.271 µM) | 0.1 (≈ 0.271 µM) | 0.12 (≈ 0.325 µM) | 0.12 (≈ 0.325 µM) | 0.12 (≈ 0.325 µM) | 0.25 (≈ 0.677 µM) | 0.1 (≈ 0.271 µM) | 0.1 (≈ 0.271 µM) | 0.1 (≈ 0.271 µM) | 0.1 (≈ 0.271 µM) | MIC [5]: > 100 µg/mL; MIC [6]: > 100 µg/mL; MIC [7]: > 100 µg/mL; MIC [8]: > 100 µg/mL; MIC [9]: > 100 µg/mL; MIC [10]: > 100 µg/mL; MIC [11]: > 100 µg/mL; MIC [12]: > 100 µg/mL; MIC [13]: > 100 µg/mL; MIC [14]: > 100 µg/mL; MIC [15]: > 100 µg/mL; Gastric acid secretion inhibiting action: Amount of gastric acid [16]: 44%; Gastric acid secretion inhibiting action: Amount of gastric acid secretion [16]: 70%; Gastric acid secretion inhibiting action: Total acidity [16]: 44% |

From patent publication US8778975B2, “Helicobacter pylori eradicating agent having inhibitory activity on gastric acid secretion” (Link Geonomics, Inc., priority 2006, dated 2014)
